Where “and” joins values, the source holds several entries; their conditions need not be identical. Equal entries are not always repeated. After the bases stand the sugars from the 5' end (letter, count) and the backbone: PS all phosphorothioate, else s phosphorothioate and o phosphodiester by linkage. HELM strings list units from the 5' end as sugar, base in round brackets, then linkage (d deoxyribose, r ribose, m 2'-O-methyl, p phosphodiester). Methylation of C is not given here. [moe] = 2'-O-(2-methoxyethyl) (MOE); [cEt] = constrained ethyl (cEt); [sp] = phosphorothioate linkage; e = 2'-O-(2-methoxyethyl) (MOE); k = constrained ethyl (cEt); d = 2'-deoxy (DNA)
What was measured:
HBV = conditions: ASO, HepG2, 0.07 µM
APOL1 = conditions: ASO

Substance | target mRNA inhibition (HBV) | target mRNA inhibition (APOL1; A431, 2 µM) | further results
RNA1{[moe](A)[sp].[cEt](G)[sp].d(T)[sp].d(C)[sp].d(C)[sp].d(A)[sp].d(C)[sp].d(C)[sp].d(A)[sp].d(C)[sp].d(G)[sp].d(A)[sp].[cEt](G)[sp].[moe](T)[sp].[cEt](C)[sp].[moe](T)}$$$$V2.0 | 51% and 43% | – | –
RNA1{[moe](A)[sp].[cEt](T)[sp].d(T)[sp].d(T)[sp].d(A)[sp].d(T)[sp].d(G)[sp].d(C)[sp].d(C)[sp].d(T)[sp].d(A)[sp].d(C)[sp].[cEt](A)[sp].[moe](G)[sp].[cEt](C)[sp].[moe](C)}$$$$V2.0 | 44% and 52% | – | –
RNA1{[moe](A)[sp].[moe](A)[sp].[moe](C)[sp].[moe](T)[sp].d(G)[sp].d(G)[sp].d(A)[sp].d(G)[sp].d(C)[sp].d(C)[sp].d(A)[sp].d(C)[sp].d(C)[sp].[moe](A)[sp].[moe](G)[sp].[moe](C)}$$$$V2.0 | 52% and 45% | – | –
RNA1{[moe](A)[sp].[moe](A)[sp].[moe](C)[sp].d(C)[sp].d(A)[sp].d(C)[sp].d(T)[sp].d(G)[sp].d(A)[sp].d(A)[sp].d(C)[sp].d(A)[sp].d(A)[sp].[cEt](A)[sp].[cEt](T)[sp].[cEt](G)}$$$$V2.0 | 41% and 38% | – | –
RNA1{[moe](A)[sp].[moe](A)[sp].[moe](C)[sp].d(T)[sp].d(G)[sp].d(G)[sp].d(A)[sp].d(G)[sp].d(C)[sp].d(C)[sp].d(A)[sp].d(C)[sp].d(C)[sp].[cEt](A)[sp].[cEt](G)[sp].[cEt](C)}$$$$V2.0 | 56% and 63% | – | –
RNA1{[moe](A)[sp].[moe](A)[sp].[moe](G)[sp].[moe](A)[sp].[moe](T)[sp].[moe](G)[sp].d(A)[sp].d(G)[sp].d(G)[sp].d(C)[sp].d(A)[sp].d(T)[sp].d(A)[sp].d(G)[sp].d(C)[sp].[moe](A)[sp].[moe](G)}$$$$V2.0 | 65% and 41% | – | –
RNA1{[moe](A)[sp].[moe](A)[sp].[moe](G)[sp].[moe](A)[sp].[moe](T)[sp].d(G)[sp].d(A)[sp].d(G)[sp].d(G)[sp].d(C)[sp].d(A)[sp].d(T)[sp].d(A)[sp].d(G)[sp].[moe](C)[sp].[moe](A)[sp].[moe](G)}$$$$V2.0 | 26% and 34% | – | –
TTGTAAGTGCAACCAA (sugars k2 d4 e3 k2 d5, PS) | – | 83% | –
TTGTAAGTGCAACCAA (sugars k2 d4 e4 k2 d4, PS) | – | 70% | –
TTGTAAGTGCAACCAA (sugars kkdddddkekeddddd, PS) | – | 81% | –
TTTATACCAGTGTCTT (sugars k3 d4 k3 e1 d5, PS) | – | 80% | –
TTTATACCAGTGTCTT (sugars kkdddddkekeddddd, PS) | – | 84% | –
TTTATACCAGTGTCTT (sugars kkddddekekeddddd, PS) | – | 90% | –
TTTCATATTCACCCGA (sugars k4 d9 k3, PS) | – | – | target mRNA inhibition (APOL1; A431, 0.0625 µM): 46%; target mRNA inhibition (APOL1; A431, 0.25 µM): 68%; target mRNA inhibition (APOL1; A431, 1 µM): 86%
TTTGTAAGTGCAACCA (sugars k3 d4 k3 e1 d5, PS) | – | 56% | –
TTTGTAAGTGCAACCA (sugars kdddddkekekddddd, PS) | – | 99% | target mRNA inhibition (APOL1; A431, 0.0156 µM): 24%; target mRNA inhibition (APOL1; A431, 0.0625 µM): 58%; target mRNA inhibition (APOL1; A431, 0.25 µM): 86%; target mRNA inhibition (APOL1; A431, 1 µM): 96%
TTTGTAAGTGCAACCA (sugars kkddddekekeddddd, PS) | – | 97% | target mRNA inhibition (APOL1; A431, 0.0156 µM): 29%; target mRNA inhibition (APOL1; A431, 0.0625 µM): 59%; target mRNA inhibition (APOL1; A431, 0.25 µM): 83%; target mRNA inhibition (APOL1; A431, 1 µM): 96%
TTTGTAAGTGCAACCA (sugars kkddddkekekddddd, PS) | – | 98% | –
TTTGTAAGTGCAACCA (sugars kkddddkekekkdddd, PS) | – | 87% | –
TTTGTAAGTGCAACCA (sugars kkkddddkekeddddd, PS) | – | 49% | –
TTTGTAAGTGCAACCA (sugars kkkddddkekekdddd, PS) | – | 63% | –
TTTTAGAAAGGACACG (sugars k4 d9 k3, PS) | – | – | target mRNA inhibition (APOL1; A431, 0.0625 µM): 42%; target mRNA inhibition (APOL1; A431, 0.25 µM): 67%; target mRNA inhibition (APOL1; A431, 1 µM): 85%
TTTTCACCATAGCACG (sugars k4 d9 k3, PS) | – | – | target mRNA inhibition (APOL1; A431, 0.0625 µM): 33%; target mRNA inhibition (APOL1; A431, 0.25 µM): 63%; target mRNA inhibition (APOL1; A431, 1 µM): 85%
